Measurements published in patent US20100061982A1, “3-SUBSTITUTED-1H-INDOLE, 3-SUBSTITUTED-1H-PYRROLO[2,3-B]PYRIDINE AND 3-SUBSTITUTED-1H-PYRROLO[3,2-B]PYRIDINE COMPOUNDS, THEIR USE AS MTOR KINASE AND PI3 KINASE INHIBITORS, AND THEIR SYNTHESES” (priority 2008, published 2010).
Values after ≈ are worked out from the molar mass of the structure shown. Read-outs that look alike come from different tables or passages of the source.

Columns and labels:
[1] = Microsome Stability (15 min), rat; type: in vitro ADME; conditions: microsomes
[2] = Microsome Stability (15 min), nude mouse; type: in vitro ADME; conditions: microsomes
[3] = Plasma Stability (37° C.), rat
[4] = Plasma Stability (37° C.), nude mouse
[5] = Microsome Stability (15 min), human; type: in vitro ADME; conditions: microsomes
[6] = PAMPA permeability pH 7.4
[7] = Buffer Stability (37° C.)
Solubility pH 7.4 = conditions: pH 7.4, aqueous buffer
[8] = CACO2 permeability a-b/b-a; type: in vitro ADME; conditions: human, Caco-2; for Papp A→B: a − b (first value of cell), read-out: CACO2 Pe a − b; for Papp B→A: b − a (second value of cell), read-out: CACO2 Pe b − a
[9] = In vivo blood/plasma and tumor levels of prodrug and metabolites after 50 mg, kg po; conditions: 50 mg
PI3K alpha = PI3K alpha (Homo sapiens, UniProt P42336); experiment: PI3K-alpha Fluorescence Polarization Assay; type: biochemical
[10] = Phase I (NADPH), read-out: Microsome Stability (15 min) T ½ Phase I rat
[11] = nude, mouse, Phase I (NADPH), read-out: Microsome Stability (15 min) T ½ Phase I nude mouse
[12] = Phase I (NADPH), read-out: Microsome Stability (15 min) T ½ Phase I human
[13] = value after the slash in Table VIc, read-out: Microsome Stability (15 min) T ½ human, second value of cell
[14] = Phase I (NADPH), read-out: Microsome Stability (15 min) T ½ Phase I nude mouse

Chain of PI3K alpha (P42336 whole entry, species assumed): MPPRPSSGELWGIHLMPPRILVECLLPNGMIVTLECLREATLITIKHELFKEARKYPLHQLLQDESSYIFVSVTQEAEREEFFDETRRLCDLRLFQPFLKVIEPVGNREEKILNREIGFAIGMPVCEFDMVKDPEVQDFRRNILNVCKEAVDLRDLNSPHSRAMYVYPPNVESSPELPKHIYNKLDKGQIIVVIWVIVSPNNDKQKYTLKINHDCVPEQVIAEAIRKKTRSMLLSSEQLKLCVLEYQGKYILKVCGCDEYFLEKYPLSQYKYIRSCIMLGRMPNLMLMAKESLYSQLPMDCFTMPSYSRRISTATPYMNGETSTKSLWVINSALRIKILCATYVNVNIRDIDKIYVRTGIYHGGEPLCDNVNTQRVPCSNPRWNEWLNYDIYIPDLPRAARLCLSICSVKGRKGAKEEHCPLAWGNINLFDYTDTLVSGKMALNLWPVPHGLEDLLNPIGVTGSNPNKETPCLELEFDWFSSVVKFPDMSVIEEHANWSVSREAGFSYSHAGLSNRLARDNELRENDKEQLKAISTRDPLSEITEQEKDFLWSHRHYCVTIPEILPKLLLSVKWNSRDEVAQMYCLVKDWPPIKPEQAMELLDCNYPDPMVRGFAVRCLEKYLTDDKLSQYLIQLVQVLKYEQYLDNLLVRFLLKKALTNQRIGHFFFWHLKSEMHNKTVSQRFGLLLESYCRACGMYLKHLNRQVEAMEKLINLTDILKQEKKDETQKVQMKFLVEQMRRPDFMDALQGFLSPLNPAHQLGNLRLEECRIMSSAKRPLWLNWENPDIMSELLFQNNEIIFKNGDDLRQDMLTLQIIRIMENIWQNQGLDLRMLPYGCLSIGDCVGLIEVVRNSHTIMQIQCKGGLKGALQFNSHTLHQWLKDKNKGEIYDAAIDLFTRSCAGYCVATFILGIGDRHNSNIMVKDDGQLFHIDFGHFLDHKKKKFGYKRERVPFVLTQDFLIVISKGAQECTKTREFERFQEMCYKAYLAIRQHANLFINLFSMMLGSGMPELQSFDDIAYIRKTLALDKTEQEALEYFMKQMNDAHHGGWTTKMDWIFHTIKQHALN
Chain of PI3K alpha (P27986 whole entry partner, species assumed): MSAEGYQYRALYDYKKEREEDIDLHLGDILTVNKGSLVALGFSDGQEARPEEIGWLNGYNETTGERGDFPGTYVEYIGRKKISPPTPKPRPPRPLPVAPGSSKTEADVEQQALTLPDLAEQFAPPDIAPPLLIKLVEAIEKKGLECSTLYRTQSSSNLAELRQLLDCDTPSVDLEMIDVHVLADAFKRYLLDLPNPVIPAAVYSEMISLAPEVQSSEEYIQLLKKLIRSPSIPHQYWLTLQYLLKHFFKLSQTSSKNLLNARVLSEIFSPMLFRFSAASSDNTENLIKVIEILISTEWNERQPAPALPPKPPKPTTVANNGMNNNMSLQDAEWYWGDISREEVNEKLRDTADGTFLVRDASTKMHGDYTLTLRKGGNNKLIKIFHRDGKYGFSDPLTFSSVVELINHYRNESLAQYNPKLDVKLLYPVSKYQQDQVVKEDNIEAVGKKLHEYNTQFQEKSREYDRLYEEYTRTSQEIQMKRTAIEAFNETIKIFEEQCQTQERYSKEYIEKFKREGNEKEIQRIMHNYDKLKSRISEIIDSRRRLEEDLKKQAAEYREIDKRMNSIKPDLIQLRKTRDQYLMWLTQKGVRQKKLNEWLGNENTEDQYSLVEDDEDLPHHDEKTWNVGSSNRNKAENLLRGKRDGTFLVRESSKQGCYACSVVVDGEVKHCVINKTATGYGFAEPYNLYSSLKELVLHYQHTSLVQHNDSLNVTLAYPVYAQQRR

Compound | half-life [1, 10] | half-life [2, 11] | Plasma Stability (37° C.) % Remaining (3-3.5 hours) rat [3] | Plasma Stability (37° C.) % Remaining (3-3.5 hours) nude mouse [4] | half-life [5, 12] | PAMPA Pe [6] | Buffer Stability (37° C.) % Remaining (at 16-23 hours) SGF [7] | Buffer Stability (37° C.) % Remaining (at 16-23 hours) SIF [7] | Buffer Stability (37° C.) % Remaining (at 16-23 hours) pH 1 [7] | Buffer Stability (37° C.) % Remaining (at 16-23 hours) pH 4.5 [7] | Buffer Stability (37° C.) % Remaining (at 16-23 hours) pH 6.6 [7] | Buffer Stability (37° C.) % Remaining (at 16-23 hours) pH 7.4 [7] | Buffer Stability (37° C.) % Remaining (at 16-23 hours) pH 9 [7] | solubility (Solubility pH 7.4) | Papp A→B [8] | Papp B→A [8] | IC50 (PI3K alpha; read-out: PI3K alpha Mean IC50) | other results
COc1ccc2c(c1)c(/C=C1\Oc3cc(O)cc(O)c3C1=O)cn2CCCN(C)C [(2Z)-2-({1-[3-(dimethylamino)propyl]-5-methoxy-1H-indol-3-yl}methylene)-4,6-dihydroxy-1-benzofuran-3(2H)-one] | 6 min | 15 min | 77% | 78% | > 30 min | 0 10e−6 cm/s | 95% | 57% | 99% | 93% | 83% | 82% | 94% | 33 µg/mL (≈ 80.8 µM) | 3.9 ×10⁻⁶ cm/s | 27 ×10⁻⁶ cm/s | – | half-life [5, 13]: 28 min; plasma prodrug, Dosed @ 50 mg, kg po (precursor phenolic compound dosed) ([9]; 1 h conc.): 23; plasma prodrug, Dosed @ 50 mg, kg po (precursor phenolic compound dosed) ([9]; 4 h conc.): 7
COc1ccc2[nH]c(-c3ccccc3)c(/C=C3\Oc4cc(O)ccc4C3=O)c2c1 [(2Z)-6-hydroxy-2-[(5-methoxy-2-phenyl-1H-indol-3-yl)methylene]-1-benzofuran-3(2H)-one] | 18 min | 19 min | 111% | 83% | 15 min | 0.18 10e−6 cm/s | 93% | 97% | 97% | 98% | 98% | 98% | 99% | – | 0.03 ×10⁻⁶ cm/s | 0.11 ×10⁻⁶ cm/s | 0.0013 µM | half-life ([1]; value after the slash in Table VIc, read-out: Microsome Stability (15 min) T ½ rat, second value of cell): 4 min; half-life ([2]; nude, mouse, value after the slash in Table VIc, read-out: Microsome Stability (15 min) T ½ nude mouse, second value of cell): 4 min; half-life [5, 13]: 3 min; plasma prodrug, Dosed @ 50 mg, kg po (precursor phenolic compound dosed) ([9]; first value, time not stated in Table VIIb): bql, bql; plasma prodrug, Dosed @ 50 mg, kg po (precursor phenolic compound dosed) ([9]; second value, time not stated in Table VIIb): bql, bql
COc1ccc2c(c1)c(/C=C1\Oc3cc(OC(=O)N(C)c4ccccc4)cc(OC(=O)N(C)c4ccccc4)c3C1=O)cn2CCCN(C)C [Example 2, (2Z)-2-({1-[3-(dimethylamino)propyl]-5-methoxy-1H-indol-3-yl}methylene)-3-oxo-2,3-dihydro-1-benzofuran-4,6-diyl bis[methyl(phenyl)carbamate]] | > 30 min | – | 22% | 10% | 24 min | 0 10e−6 cm/s | 100% | 100% | 100% | 100% | 100% | 100% | 100% | – | 0.04 ×10⁻⁶ cm/s | 0.08 ×10⁻⁶ cm/s | – | half-life [2, 14]: > 30 min; IC50 (PI3K alpha): > 10 µM; plasma prodrug concentration ([9]; 0.5 h): 486 ng, ml; plasma prodrug concentration ([9]; 2 h): 757 ng, ml
COc1ccc2c(c1)c(/C=C1\Oc3cc(OC(=O)N(C(C)C)C(C)C)cc(OC(=O)N(C(C)C)C(C)C)c3C1=O)cn2CCCN(C)C [Example 4, (2Z)-2-({1-[3-(dimethylamino)propyl]-5-methoxy-1H-indol-3-yl}methylene)-3-oxo-2,3-dihydro-1-benzofuran-4,6-diyl bis(diisopropylcarbamate)] | > 30 min | – | 65% | 64% | 6 min | 0 10e−6 cm/s | 100% | 100% | 100% | 100% | – | 100% | 100% | – | 0.16 ×10⁻⁶ cm/s | 0.06 ×10⁻⁶ cm/s | – | half-life [2, 14]: 21 min; IC50 (PI3K alpha): > 10 µM; plasma prodrug concentration ([9]; 0.5 h): 411 ng, ml; plasma prodrug concentration ([9]; 2 h): 435 ng, ml
COc1ccc2c(c1)c(/C=C1\Oc3cc(OC(=O)OC(C)C)cc(OC(=O)OC(C)C)c3C1=O)cn2CCCN(C)C [Example 5, (2Z)-2-({1-[3-(dimethylamino)propyl]-5-methoxy-1H-indol-3-yl}methylene)-3-oxo-2,3-dihydro-1-benzofuran-4,6-diyl diisopropyl biscarbonate] | < 1 min | 3 min | 0% | 16% | 3 min | 0 10e−6 cm/s | 94% | 0% | 95% | 82% | 63% | 14% | 0% | 3 µg/mL (≈ 5.17 µM) | – | – | > 9.75 µM | –
COc1ccc2c(c1)c(/C=C1\Oc3cc(OC(=O)CC(C)C)cc(OC(=O)CC(C)C)c3C1=O)cn2CCCN(C)C [Example 9, (2Z)-2-({1-[3-(dimethylamino)propyl]-5-methoxy-1H-indol-3-yl}methylene)-3-oxo-2,3-dihydro-1-benzofuran-4,6-diyl bis(3-methylbutanoate)] | 4 min | 6 min | 0% | 8% | 6 min | 0 10e−6 cm/s | 77% | 0% | 73% | 66% | 46% | 0% | 0% | 1 µg/mL (≈ 1.73 µM) | – | – | > 10 µM | –
COc1ccc2[nH]c(-c3ccccc3)c(/C=C3\Oc4cc(OC(=O)C(C)(C)C)cc(OC(=O)C(C)(C)C)c4C3=O)c2c1 [Example 10, (2Z)-2-[(5-methoxy-2-phenyl-1H-indol-3-yl)methylene]-3-oxo-2,3-dihydro-1-benzofuran-4,6-diyl bis(2,2-dimethylpropanoate)] | 12 min | – | 6% | 0% | 19 min | 0 10e−6 cm/s | 95% | 0% | 86% | 92% | 72% | 44% | 0% | 2 µg/mL (≈ 3.52 µM) | – | – | 2.78 µM | –
